From the supplement of paper PMC10307832

Key:
Test in all cases: relative viability (nuclei count vs DMSO), 5 days (fraction); higher = more cells survive
[1] = compound: CS(=O)(=O)c1ccc(-c2cnc(N)c(C(=O)Nc3ccccc3)n2)cc1 [VE-821] + Cc1nc(Nc2ncc(C(=O)Nc3c(C)cccc3Cl)s2)cc(N2CCN(CCO)CC2)n1 [Dasatinib] (partner 0.075 µM)
How it was run: (§1)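 Five library-drug doses in √10 steps were combined with a fixed anchor-drug dose, or a single drug was given alone, by pin tool to lung cancer cell lines in 1536-well plates the day after seeding. Nuclei were stained and counted after 5 days. Relative viability is the nuclei count in treated wells over that in vehicle wells, taken as the median of duplicate plates.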

[2] = compound: CS(=O)(=O)c1ccc(C(=O)Nc2ccc(Cl)c(-c3ccccn3)c2)c(Cl)c1 [Vismodegib] + Cc1nc(Nc2ncc(C(=O)Nc3c(C)cccc3Cl)s2)cc(N2CCN(CCO)CC2)n1 [Dasatinib] (partner 0.075 µM)
How it was run: as §1

[3] = compound: N#CC[C@H](C1CCCC1)n1cc(-c2ncnc3[nH]ccc23)cn1 [Ruxolitinib] + CS(=O)(=O)CCNCc1ccc(-c2ccc3ncnc(Nc4ccc(OCc5cccc(F)c5)c(Cl)c4)c3c2)o1 [Lapatinib] (partner 2 µM)
How it was run: as §1

[4] = compound: N#CC[C@H](C1CCCC1)n1cc(-c2ncnc3[nH]ccc23)cn1 [Ruxolitinib] + N=C(N)NC(=N)NCCc1ccccc1 [Phenformin] (partner 250 µM)
How it was run: as §1

Cell Line	relative viability ([1]; first compound 0.08 µM)	relative viability ([1]; first compound 0.253 µM)	relative viability ([1]; first compound 0.8 µM)	relative viability ([1]; first compound 2.53 µM)	relative viability ([1]; first compound 8 µM)	relative viability ([2]; first compound 0.08 µM)	relative viability ([2]; first compound 0.253 µM)	relative viability ([2]; first compound 0.8 µM)	relative viability ([2]; first compound 2.53 µM)	relative viability ([2]; first compound 8 µM)	relative viability ([3]; first compound 0.08 µM)	relative viability ([3]; first compound 0.253 µM)	relative viability ([3]; first compound 0.8 µM)	relative viability ([3]; first compound 2.53 µM)	relative viability ([3]; first compound 8 µM)	relative viability ([4]; first compound 0.08 µM)	relative viability ([4]; first compound 0.253 µM)	relative viability ([4]; first compound 0.8 µM)	relative viability ([4]; first compound 2.53 µM)	relative viability ([4]; first compound 8 µM)
201T	0.588	0.529	0.476	0.434	0.44	0.646	0.52	0.481	0.569	0.463	1.1	1.14	1.11	1.28	1.26	0.44	0.455	0.473	0.429	0.503
HOP-62	0.708	0.656	0.651	0.858	0.684	0.663	0.694	0.609	0.683	0.683		1.07	1.16	0.91	0.914	0.678	0.629	0.699	0.668	0.63
NCI-H1975	0.372	0.287		0.278	0.253	0.347	0.338	0.371	0.267	0.348	0.952	0.955	0.831	0.71	0.858	0.43	0.394	0.423	0.384	0.269
NCI-H1755	0.455	0.452	0.372	0.413	0.318	0.423	0.392	0.412	0.448	0.441	1.05	1.02	1.04	0.977	0.722	0.613	0.586	0.575	0.527	0.526
NCI-H2023	0.681	0.432	0.458	0.373	0.13	0.564	0.534	0.628	0.455	0.558	0.921	0.693	1.75	0.807	0.728	0.383	0.373	0.428	0.358	0.328
EKVX	0.531	0.483	0.449	0.45	0.328	0.491	0.561	0.604	0.576	0.526	0.224	0.194	0.231	0.207	0.188	0.275	0.209	0.204	0.221	0.235
LCLC-97TM1	1.1	0.763	0.756	0.838	0.639	0.855	0.755	0.617	0.856	0.834	0.877	0.833	0.852	0.83	1.21	0.438	0.43	0.507	0.428	0.378
NCI-H2085	0.214	0.259	0.192	0.226	0.202	0.26	0.244	0.22	0.217	0.213	0.853	0.67	1	0.725	0.806	0.758	0.774	0.831	0.627	0.642
BEN	0.31	0.337	0.282	0.291	0.364	0.385	0.399	0.337	0.315	0.296	0.798	0.76	0.766	0.767	0.777	0.232	0.281	0.244	0.239	0.255
HARA	0.271	0.221	0.315	0.254	0.253	0.263	0.249	0.254	0.339	0.279	0.766	0.631	0.76	0.7	0.675	0.431	0.536	0.516	0.391	0.319
PC-14	0.231	0.238	0.269	0.229	0.0835	0.25	0.235	0.27	0.225	0.244		0.243	0.347	0.316	0.313		0.436	0.518	0.566	0.604
SW 1573	0.49	0.573	0.551	0.503	0.218	0.406	0.44	0.389	0.447	0.632	1.05	0.99	1.16	1.07	1.09	0.419	0.324	0.417	0.308	0.369
NCI-H1563	0.449	0.483	0.405	0.456	0.453	0.455	0.443	0.477	0.495	0.454	1.07	0.85	0.979	0.903	0.774	0.667	0.69	0.643	0.593	0.602
NCI-H1355	0.748	0.65	0.609	0.627	0.575	0.686	0.723	0.591	0.771	0.689	0.939	0.898	1.01	0.902	0.863	0.418	0.418	0.46	0.394	0.416
NCI-H460	0.58	0.488	0.428	0.261	0.223	0.575	0.507	0.533	0.482	0.533	0.95	1.06	1.21	0.759	1.08	0.484	0.54	0.549	0.443	0.445
NCI-H2126	0.57	0.52	0.515	0.427	0.36	0.666	0.57	0.554	0.544	0.473	0.907	0.776	0.837	0.874	0.878	0.518	0.474	0.568	0.528	0.522
COR-L 105	0.327	0.313	0.276	0.344	0.255	0.288	0.303	0.422	0.339	0.357	0.394	0.341	0.454	0.461	0.333	0.409	0.495	0.425	0.392	0.374
H3255	0.364	0.403	0.321	0.383	0.328	0.303	0.329	0.38	0.37	0.309		0.236	0.249	0.28	0.226	0.232	0.339	0.289	0.295	0.405
NCI-H2347	0.299	0.319	0.344	0.329	0.262	0.281	0.35	0.331	0.272	0.293	0.825	0.964	0.912	0.836	0.734	0.385	0.406	0.453	0.533	0.505
CAL-12T	0.499	0.327	0.372	0.443	0.243	0.322	0.224	0.403	0.586	0.482		0.643	0.88	0.697	0.623	0.437	0.674	0.596	0.444	0.408
HCC-827	0.322	0.294	0.289	0.421	0.262	0.361	0.263	0.297	0.268	0.293		0.196	0.172	0.212	0.225		0.35	0.32	0.304	0.411
NCI-H520	0.232	0.23	0.166	0.298	0.165	0.191	0.202	0.188	0.166	0.203		0.815	1.04	0.588	0.671	0.565	0.323	0.717	0.483	0.58
A-427	0.793	0.647	0.657	0.652	0.423	0.647	0.65	0.609	0.642	0.804	0.875	1.14	1.09	1.11	0.967	0.291	0.3	0.338	0.281	0.276
NCI-H650	0.501	0.445	0.465	0.528	0.426	0.507	0.43	0.358	0.438	0.441		0.925	1.05	0.842	0.667		0.449	0.519	0.351	0.342
NCI-H727	0.457	0.334	0.374	0.32	0.317	0.307	0.345	0.342	0.308	0.364	0.904	1.03	1.09	0.777	0.821	0.505	0.55	0.576	0.599	0.848
ABC-1	0.554	0.519	0.614	0.517	0.439	0.584	0.415	0.527	0.527	0.582	1.19	1.19	1.4	1.11	1.17		0.282	0.316	0.287	0.294
NCI-H1793	0.376	0.371	0.437	0.427	0.386		0.408	0.374	0.416	0.365	0.647	0.665	0.905	0.896	0.493	0.361	0.345	0.368	0.338	0.304
